Results published in patent US11939377B2, “Affinity matured CD22-specific monoclonal antibody and uses thereof” (The U.S.A., as represented by the Secretary, Department of …, priority 2018, dated 2024).

Key:
[1] = tested on: CD22 expression on ALL and DLBCL cell lines (Nalm6, Kopn8, SEM, Pfeiffer, Toledo, PDX); assay: CD22 expression on leukemia/lymphoma cells by flow cytometry after drug exposure in vitro; type: cell-based, human
Method: (§1) FIGS. 3A-3D: (FIG. 3A) Four cell lines (Nalm6, Kopn8, Pfieffer and Toldeo) were co-incubated with 1 ng/ml Bryostatin 1 for 24 hours and analyzed using flow cytometry one day after Bryostatin 1 exposure. Site density was analyzed using standardized Quantibrite-PE beads. (FIG. 3B) Cell lines were co-incubated with 1 ng/ml Bryostatin 1 for 24 hours, washed, and analyzed using flow cytometry at 1 and 7 days after Bryostatin 1 exposure. Fold change was calculated based on site density: (Cell line Bryostatin 1—Cell line DMSO)/Cell line DMSO. (FIG. 3C) NSG mice were injected with 1×10^6 GPF-positive Nalm6 leukemia cells on Day 0. Bryostatin 1 was administered at 0.8 μg/kg on Day 3. Mice were sacrificed 7 and 12 days after Bryostatin 1 injection and CD22 was evaluated by flow cytometry. (FIG. 3D) CD22-low relapse PDX cell line was cultured in vitro with 1 nmol/L Bryostatin 1 for 24 hours and measured for CD22 expression using CD22 antibody.
(§2) FIGS. 10A-10E: (FIG. 10A) Three cell lines (Toldeo, Kopn8 and Nalm6) were co-incubated with Bryostatin 1 at varying concentrations for 24 hours. At 24 hours, cells were collected for protein kinase C (PKC)-βII isoform analysis by western blot. (FIG. 10B) KOPN8 or SEM cell lines were exposed to Bryostatin 1 for 16, 24, 48 or 72 hours. RNA was extracted from cells and analyzed using RNAseq. (FIG. 10C) Immunofluorescent staining of CD22 was conducted through permeabilization followed by staining of CD22. (FIG. 10D) Four cell lines were co-incubated with various combinations of Enzastaurin (10 μM), Staurosporine (100 μM), or Bryostatin 1 (1 nM) for 24 hours. CD22 expression was assessed using flow cytometry. MFI fold change=CD22 MFI^Bryostatin1/CD22 MFI^DMSO. (FIG. 10E) Cell lines were co-incubated with 1 nM Bryostatin 1 for 24 hours and measured for CD22 expression using CD22-PE antibody. MFI fold change=CD22 MFI^Bryostatin 1/CD22 MFI^DMSO.
FIG. 11: CD22^lo or parental Nalm6 cell lines were exposed to 1 ng/ml Bryostatin 1 for 24 hours. CD22 expression was assessed using flow cytometry.
For all in vitro experiments and tumor/CAR pretreatment prior to intravenous injection, Bryostatin 1 was administered to cells at a concentration of 1 ng/mL. Dimethyl sulfoxide (DMSO) vehicle control was administered to control-treated cells at an equal volume. Prior to co-culture or intravenous injection, Bryostatin 1- and DMSO-treated cells were washed 3x in sterile PBS. For all in vivo experiments, Bryostatin 1 was diluted in PBS and administered via intraperitoneal injection at a dose of 40 μg/kg (1 μg/25 g mouse). For control-treated groups, an equal volume of DMSO was diluted in PBS and administered in the same manner
FACS analysis of cell surface CAR and protein expression was performed using an LSR II Fortessa flow cytometer (BD Biosciences). CD22-CAR was detected by incubation with 22-Fc (R&D Systems), followed by incubation with human IgG-specific PE-F(ab)2 (Thermo Fisher Scientific). The following human monoclonal antibodies were used for detection of cell surface proteins: CD22-APC, CD22-PE, CD19-Pacific Blue, CD45-PerCP/Cy5.5, CD3-APC/Cy7, PD1-PE/Cy7, LAG3-APC, TIM3-Pacific Blue, CD8-APC, CD8-PE/Cy7, CD45RA-APC, CD45RO-PE/Cy7, CCR7-Pacific Blue, CD4-Pacific Blue, CD69-APC (all from BioLegend). CD22 site density was determined using QuantiBrite-PE beads (BD Biosciences) using methods previously described (Jasper et al., Cytometry B Clin Cytom 80(2):83-90, 2011). Dead cells were identified using eFluor 506 fixable viability dye (Thermo Fisher Scientific). GFP-expressing leukemia cells were identified through the FITC channel.

[2] = tested on: CD19 expression on ALL and DLBCL cell lines; assay: CD19 expression on cell lines by flow cytometry after Bryostatin 1 exposure; type: cell-based, human; settings: 1 ng/ml, 24 hours
Method: as §1, with “antibody. […]” for “antibody.”
FACS analysis of cell surface CAR and protein expression was performed using an LSR II Fortessa flow cytometer (BD Biosciences). CD22-CAR was detected by incubation with 22-Fc (R&D Systems), followed by incubation with human IgG-specific PE-F(ab)2 (Thermo Fisher Scientific). […] CD22 site density was determined using QuantiBrite-PE beads (BD Biosciences) using methods previously described (Jasper et al., Cytometry B Clin Cytom 80(2):83-90, 2011). […]

[3] = tested on: KOPN8 and SEM cell lines; assay: RNA sequencing of Bryostatin 1-treated ALL cell lines; type: cell-based, human
Method: FIGS. 4A-4E: (FIGS. 4A-4B) KOPN8 or SEM cell lines were exposed to Bryostatin 1 for 16, 24, 48, or 72 hours. RNA was extracted from cells and analyzed using RNAseq. (FIGS. 4C-4E) Cell lines were co-incubated with 1 ng/ml of Bryostatin 1 for 24 hours. […] IL-2 (FIG. 4C), IFN-γ (FIG. 4D), and granzyme B (FIG. 4E) were measured by ELISA from cell culture supernatants. Statistical significance was calculated using an unpaired t-test (**** p<0.0001, *** p<0.0002, ** p<0.0021, * p<0.0332).
Sixteen RNA-seq samples were pooled and sequenced on one NextSeq high output run using Illumina TruSeq Poly A RNA Kit v3 with paired end sequencing. All samples had greater than 30 million pass filter reads with a base call quality above 95% of bases with Q30 and above. Reads of the samples were trimmed for adapters and low-quality bases using Trimmomatic software before alignment with the reference genome Human—hg19 and the annotated transcripts using STAR. The mapping quality statistics were calculated using Picard software and library complexity was measured in terms of unique fragments in the mapped reads using Picard's MarkDuplicate utility. The Partek Flow informatics pipeline was used to generate fold change and differentially expressed gene data as well as for data visualization. Gene set enrichment analysis (GSEA) of the differentially expressed genes was performed as previously described and using standard parameters.

[4] = tested on: CD22; assay: Immunofluorescent staining of CD22 in permeabilized leukemia cells; type: cell-based, human; settings: 24 hours after exposure, 1 nM
Method: as §2
μ-dish 35 mm, high glass bottom dishes (Ibidi Inc, Madison, WI) were coated with poly-D-lysine for 2 hours and then seeded with 5×10^5 leukemia cells, which had been pre-treated with either 1 nM Bryostatin 1 or DMSO control for 24 hours. Approximately 12 hours after seeding, cells were fixed in 4% paraformaldehyde and then permeabilized with 0.2% Triton X-100 detergent. […]

[5] = tested on: Nalm6, Nalm6 CRISPR variant, SEM or PDX leukemia; assay: Nalm6 / SEM xenograft and PDX in vivo studies (IVIS luminescence); set-up: species or system NSG mice

SMILES: CCC/C=C/C=C/C(=O)O[C@H]1/C(=C/C(=O)OC)C[C@H]2C[C@H]([C@@H](C)O)OC(=O)C[C@H](O)C[C@@H]3C[C@H](OC(C)=O)C(C)(C)[C@](O)(C[C@@H]4C/C(=C/C(=O)OC)C[C@H](/C=C/C(C)(C)[C@]1(O)O2)O4)O3 [Bryostatin 1]
- persistence of increased CD22 expression following removal of drug ([1]; 24 hours exposure, washed, analyzed at 1 and 7 days): persisted for a week
- CD22 expression on CD22^lo leukemia cells following exposure ([1]; CD22^lo Nalm6, 1 ng/ml, 24 hours): did not demonstrate an increase
- CD22 expression (MFI fold change) ([1]; KOPN8 and SEM, 1 nM, 24 hours): robust upregulation
- CD22 on CD22-low relapse patient-derived ALL xenograft ([1]; PDX cell line cultured in vitro, 1 nmol/L, 24 hours): upregulated
- CD22 expression upon exposure ([1]; all four cell lines (two pre-B ALL, two DLBCL), 1 ng/ml, 24 hours): significant increase
- CD19 expression on ALL [2]: did not alter
- CD19 expression on DLBCL [2]: modest increase
- genes with 2-fold increased expression versus control ([3]; KOPN8): 756 genes
- genes with a greater than 2-fold change ([3]; KOPN8, 24 hours): 1524 genes
- CD22 mRNA over the course of treatment ([3]; KOPN8 and SEM, 16, 24, 48, 72 hours): Neither cell line showed changes
- genes with a 2-fold change ([3]; SEM): only one gene
- vacuolated CD22 compared to DMSO controls [4]: less vacuolated CD22
- durability of remission after subcurative dose of CD22 CART ([5]; Nalm6 and SEM, 40 μg/kg once weekly for 2 weeks): improved durability of remission
- efficacy of the CD19 CAR in vivo ([5]; SEM, 40 μg/kg once weekly for 2 weeks): did not reduce efficacy
- ability of CD22-CAR to attenuate progression of CD22^lo leukemia in vivo ([5]; once weekly for 2 weeks after CD22 CART): did not impact
